Results published in patent US9783505B2, “Substituted diaminopyrimidyl compounds, compositions thereof, and methods of treatment therewith” (Signal Pharmaceuticals, LLC, priority 2013, dated 2017).

The compounds below were run against T1, His-PKC-theta (Homo sapiens, UniProt Q04759) (assay: PKC-theta Assay (384-well time resolved fluorescence, IMAP TR-FRET)). Conditions: Table 2; read-out: Act. Level (IC50 in the PKC-theta Assay).
T1 construct: His; purchased Invitrogen
Assay type: biochemical
Description: PKC-theta Assay. A 384-well time resolved fluorescence assay was used to monitor PKC-theta activity. The PKC-theta assay was run in the following assay buffer: 50 mM HEPES pH 7.6, 10 mM MgCl2, 1 mM DTT, 0.01% Triton X-100, 0.01% BSA and 0.1 mM EDTA. To initiate the reaction, 200 nM of Fam-labeled S6-derived peptide (Molecular Devices) and 10 μM of ATP were mixed with 142 pM of His-PKC-theta (Invitrogen) for a total assay volume of 25 μL in each well. The assay was incubated at room temperature for 2 hours and terminated using a 60 μL/well mixture of Detection Binding Solution: 70% IMAP Progressive Binding Buffer A, 30% IMAP Progressive Binding Buffer B, 1:600 Progressive Binding Reagent, and 1:400 TR-FRET Tb Donor (Molecular Devices). The assay plates were then incubated overnight at room temperature and read on a Perkin-Elmer Envision Reader.

T1 sequence (Q04759 whole entry): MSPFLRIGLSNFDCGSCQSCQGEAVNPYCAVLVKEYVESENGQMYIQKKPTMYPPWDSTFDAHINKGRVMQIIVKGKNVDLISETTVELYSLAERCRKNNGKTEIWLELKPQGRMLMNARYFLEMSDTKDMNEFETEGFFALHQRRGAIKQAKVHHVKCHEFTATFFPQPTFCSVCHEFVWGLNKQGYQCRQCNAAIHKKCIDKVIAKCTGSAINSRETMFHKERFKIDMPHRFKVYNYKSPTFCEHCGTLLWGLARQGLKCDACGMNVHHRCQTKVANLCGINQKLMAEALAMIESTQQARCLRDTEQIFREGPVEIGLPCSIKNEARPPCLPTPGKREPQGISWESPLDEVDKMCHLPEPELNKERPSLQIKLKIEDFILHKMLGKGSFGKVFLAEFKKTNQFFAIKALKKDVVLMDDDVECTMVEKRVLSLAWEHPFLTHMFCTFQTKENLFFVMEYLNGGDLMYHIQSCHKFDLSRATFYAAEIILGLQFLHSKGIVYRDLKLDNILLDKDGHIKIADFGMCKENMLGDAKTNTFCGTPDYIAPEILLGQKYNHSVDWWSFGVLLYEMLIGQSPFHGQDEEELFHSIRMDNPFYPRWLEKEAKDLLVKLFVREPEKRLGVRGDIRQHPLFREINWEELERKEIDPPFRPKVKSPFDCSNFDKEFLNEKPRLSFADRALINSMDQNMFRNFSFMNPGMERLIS

SMILES	IC50 [nM]
CC1(C)[C@@H](O)C[C@H]1Nc1nc(NCCc2ccc(C#N)c(Br)c2)ncc1C#N [Cmpd 145]	100 to 800
CC1(C)[C@@H](CO)C[C@H]1Nc1nc(NCCc2cccc(Cl)c2)ncc1C#N [Cmpd 74]	< 100
CC1(C)[C@H](N)C[C@H]1Nc1nc(NCCc2cccc(Cl)c2)ncc1C#N [Cmpd 158]	800 to 2000
CC1(C)C[C@H](Nc2nc(NCCc3ccc(OCC(F)F)cc3)ncc2C#N)CC[C@@H]1O [Cmpd 170]	< 100
N#Cc1ccc(CCNc2ncc(C#N)c(N[C@H]3C[C@@H](C(N)=O)C3)n2)cc1 [Cmpd 192]	2000 to 10000
N#Cc1cnc(NCCc2cccc(Cl)c2)nc1N[C@H]1CC[C@H](O)CC1 [Cmpd 69]	800 to 2000
N#Cc1cnc(NCc2ccccc2Oc2ccc(F)cc2)nc1N[C@H]1CC[C@@H](O)CC1 [Cmpd 12]	800 to 2000
CC1(C)C[C@H](Nc2nc(NCCc3ccc(F)c(Cl)c3)ncc2C#N)CC[C@@H]1O [Cmpd 88]	< 100
CC1(C)C[C@@H](O)CC[C@@H]1Nc1nc(NCCc2cccc(Cl)c2)ncc1C#N [Cmpd 187]	2000 to 10000
COc1cccc(F)c1CNc1ncc(C#N)c(N[C@H]2CC[C@@H](O)CC2)n1 [Cmpd 22]	2000 to 10000
N#Cc1cnc(NCCc2ccc(F)cc2)nc1N[C@H]1CC[C@@H](C(N)=O)CC1 [Cmpd 91]	100 to 800
Cc1ccccc1CNc1ncc(C#N)c(N[C@H]2CC[C@@H](O)CC2)n1 [Cmpd 19]	2000 to 10000
CC1(C)[C@@H](O)C[C@H]1Nc1nc(NCCc2ccc(S(N)(=O)=O)cc2)ncc1C#N [Cmpd 113]	100 to 800
CC1(C)C[C@@H](Nc2nc(NCC(O)c3ccc(OC(F)F)cc3)ncc2C#N)CC[C@H]1O (stereo partly shown) [Cmpd 50]	2000 to 10000
Cc1ncc(-c2ccc(CCNc3ncc(C#N)c(N[C@@H]4C[C@H](O)C4(C)C)n3)cc2)s1 [Cmpd 124]	100 to 800
CC1(C)[C@@H](Nc2nc(NCCc3cccc(Cl)c3)ncc2C#N)C[C@@H]1N [Cmpd 157]	100 to 800
CC(F)(F)COc1ccc(CCNc2ncc(C#N)c(N[C@@H]3CC[C@H](O)C(C)(C)C3)n2)cc1 [Cmpd 151]	< 100
CC1(C)C[C@H](Nc2nc(NCCc3ccc(C#N)c(Br)c3)ncc2C#N)CC[C@@H]1O [Cmpd 146]	< 100
CC1(C)C[C@H](Nc2nc(NCCc3ccccc3C(F)(F)F)ncc2C#N)CC[C@@H]1O [Cmpd 97]	100 to 800
N#Cc1cnc(NCc2ccccc2OC(F)(F)F)nc1N[C@H]1CC[C@@H](O)CC1 [Cmpd 17]	800 to 2000
CC1(C)[C@@H](O)C[C@H]1Nc1nc(NCCc2ccc(F)cc2)ncc1C#N [Cmpd 102]	100 to 800
CC(O)(CNc1ncc(C#N)c(N[C@@H]2CC[C@H](O)C(C)(C)C2)n1)c1ccccc1 (stereo partly shown) [Cmpd 56]	800 to 2000
Cc1nnnn1-c1ccccc1CNc1ncc(C#N)c(NC2CCC(O)C(C)(C)C2)n1 (stereo not shown) [Cmpd 1]	< 100
CC1(C)C[C@H](Nc2nc(NCCc3cccc(Cl)c3)ncc2C#N)CC[C@@H]1O [Cmpd 32]	< 100

SMILES	IC50 [nM]
CC1(C)[C@@H](O)C[C@H]1Nc1nc(NCCc2ccc(C#N)c(F)c2)ncc1C#N [Cmpd 147]	100 to 800
CC1(C)C[C@H](Nc2nc(NCC(=O)c3ccc(F)cc3F)ncc2C#N)CC[C@@H]1O [Cmpd 66]	100 to 800
CC1(C)C[C@H](Nc2nc(NCCc3ccc(C#N)cc3)ncc2C(F)(F)F)CC[C@@H]1O [Cmpd 161]	100 to 800
CC1(C)[C@@H](O)C[C@H]1Nc1nc(NCCc2ccccc2)ncc1C#N [Cmpd 149]	100 to 800
COc1cccc(CCNc2ncc(C#N)c(N[C@@H]3CC[C@H](O)C(C)(C)C3)n2)c1OC [Cmpd 96]	100 to 800
COc1cc(CCNc2ncc(C#N)c(N[C@@H]3CC[C@H](O)C(C)(C)C3)n2)ccc1C#N [Cmpd 137]	100 to 800
C[C@H](CNc1ncc(C#N)c(N[C@@H]2C[C@H](O)C2(C)C)n1)c1ccccc1 [Cmpd 42]	100 to 800
COc1cc(CCNc2ncc(C#N)c(N[C@@H]3CC[C@H](O)C(C)(C)C3)n2)ccc1O [Cmpd 95]	100 to 800
CC1(C)C[C@H](Nc2nc(NCCc3ccc(CN4CCCC4=O)cc3)ncc2C#N)CC[C@@H]1O [Cmpd 52]	100 to 800
Cc1nnnn1-c1ccccc1CNc1ncc(C#N)c(N[C@H]2CC[C@@H](O)C(C)(C)C2)n1 [Cmpd 25]	2000 to 10000
COc1ccc(CCNc2ncc(C#N)c(N[C@@H]3CC[C@H](O)C(C)(C)C3)n2)cc1OC [Cmpd 36]	100 to 800
CC1(C)C[C@H](Nc2nc(NCCc3ccccc3)ncc2C#N)CC[C@@H]1O [Cmpd 150]	< 100
CC1(C)C[C@H](O)CC[C@@H]1Nc1nc(NCCc2cccc(Cl)c2)ncc1C#N [Cmpd 189]	800 to 2000
N#Cc1cnc(NCc2ccc(F)cc2F)nc1N[C@H]1CC[C@@H](O)CC1 [Cmpd 20]	2000 to 10000
CC(F)(F)COc1cccc(CCNc2ncc(C#N)c(N[C@@H]3CC[C@H](O)C(C)(C)C3)n2)c1 [Cmpd 155]	100 to 800
CC1(C)C[C@H](Nc2nc(NCCc3ccc(S(=O)(=O)N4CCCCC4)cc3)ncc2C#N)CC[C@@H]1O [Cmpd 178]	100 to 800
CC1(C)C[C@H](Nc2nc(NCCc3cc(Cl)ccc3F)ncc2C#N)CC[C@@H]1O [Cmpd 89]	< 100
CC1(C)[C@@H](O)C[C@H]1Nc1nc(NCCc2ccc(-n3cccn3)cc2)ncc1C#N [Cmpd 48]	< 100
CC1(C)C[C@H](Nc2nc(NCCc3cccc(Cl)c3C(F)(F)F)ncc2C#N)CC[C@@H]1O [Cmpd 182]	100 to 800
CC(C)(CNc1ncc(C#N)c(N[C@@H]2C[C@H](O)C2(C)C)n1)c1cccc(Cl)c1 [Cmpd 40]	2000 to 10000
N#Cc1cnc(NCc2ccccc2OC(F)F)nc1N[C@H]1CC[C@@H](O)CC1 [Cmpd 4]	100 to 800
CC1(C)[C@@H](O)C[C@H]1Nc1nc(NCCc2ccc(Oc3ccccc3)cc2)ncc1C#N [Cmpd 119]	100 to 800
CC1(C)[C@@H](O)C[C@H]1Nc1nc(NCCc2ccc(Cl)cc2Cl)ncc1C#N [Cmpd 106]	100 to 800

Same assay, conditions: read-out: Act. Level (IC50 in the PKC-theta Assay)

SMILES	IC50 [nM]
COc1ccc2c(CCNc3ncc(C#N)c(N[C@@H]4CC[C@H](O)C(C)(C)C4)n3)c[nH]c2c1 [Cmpd 183]	< 100
CC1(C)C[C@H](Nc2nc(NCc3c[n+]([O-])ccc3C(F)(F)F)ncc2C(F)(F)F)CC[C@@H]1O [Cmpd 40]	< 100
CC(C)(F)c1ncncc1CNc1ncc(C#N)c(N[C@H]2CC[C@@](C)(O)CC2)n1 [Cmpd 50]	< 100
C[C@]1(O)CC[C@@H](Nc2nc(NCc3cncnc3C(F)(F)F)ncc2C#N)CC1 [Cmpd 106]	100 to 800
COC1CC(Nc2nc(NCc3cnccc3C(F)(F)F)ncc2C(F)(F)F)C1(C)C (stereo not shown) [Cmpd 102]	100 to 800
CC(C)c1ncncc1CNc1ncc(C(F)(F)F)c(N[C@@H]2C[C@H](O)C2(C)C)n1 [Cmpd 20]	< 100
CC1(C)C[C@H](Nc2nc(NCCc3c[nH]c4ccc(F)cc34)ncc2C#N)CC[C@@H]1O [Cmpd 181]	100 to 800
CC1(C)C[C@H](Nc2nc(NCc3cnccc3C(F)(F)F)ncc2C(F)(F)F)CC[C@@H]1O [Cmpd 18]	< 100
CC1(C)[C@H](O)C[C@H]1Nc1nc(NCc2c[n+]([O-])ccc2C(F)(F)F)ncc1C(F)(F)F [Cmpd 105]	100 to 800
Cc1cccc(Oc2ncncc2CNc2ncc(C#N)c(N[C@H]3CC[C@@](C)(O)CC3)n2)c1 [Cmpd 38]	< 100
CC(F)(F)COc1ncncc1CNc1ncc(C#N)c(NC2C[C@@H](O)C2(C)C)n1 (stereo partly shown) [Cmpd 88]	< 100
CC1(C)C[C@H](Nc2nc(NCc3c[n+]([O-])ccc3C(F)(F)F)ncc2C#N)CC[C@@H]1O [Cmpd 42]	< 100
CC1(C)[C@@H](O)C[C@H]1Nc1nc(NCCc2ccccn2)ncc1C#N [Cmpd 187]	2000 to 10000
CC1(C)[C@H](O)C[C@@H]1Nc1nc(NCc2cncnc2-c2ccc(F)cc2)ncc1C#N [Cmpd 133]	100 to 800
C[C@]1(O)CC[C@@H](Nc2nc(NCc3cnccc3C(F)(F)F)ncc2C(F)(F)F)CC1 [Cmpd 46]	< 100
COc1ccc2c(CCNc3ncc(C#N)c(N[C@H]4CC[C@@H](O)CC4)n3)c[nH]c2c1 [Cmpd 164]	800 to 2000
CC1(C)[C@H](CO)C[C@@H]1Nc1nc(NCc2c[n+]([O-])ccc2C(F)(F)F)ncc1C(F)(F)F [Cmpd 141]	800 to 2000
N#Cc1cnc(NCCc2c[nH]c3ccccc23)nc1N[C@H]1CC[C@@H](O)CC1 [Cmpd 154]	100 to 800
CC(F)(F)COc1ncncc1CNc1ncc(C#N)c(N[C@H]2C[C@H](O)C2(C)C)n1 [Cmpd 121]	100 to 800
CCc1ncncc1CNc1ncc(C#N)c(N[C@H]2C[C@@H](O)C2(C)C)n1 [Cmpd 123]	100 to 800
O[C@H]1CC[C@@H](Nc2nc(NCc3cncnc3-c3ccccc3)ncc2C(F)(F)F)CC1 [Cmpd 76]	< 100
CC(C)c1ncncc1CNc1ncc(C#N)c(N[C@H]2CC[C@@](C)(O)CC2)n1 [Cmpd 56]	< 100
N#Cc1cnc(NCCC2C(=O)Nc3ccccc32)nc1N[C@H]1CC[C@@H](C(N)=O)CC1 (stereo partly shown) [Cmpd 179]	< 100
CC1(C)[C@@H](O)C[C@H]1Nc1nc(NCCc2cccc3cccnc23)ncc1C#N [Cmpd 190]	2000 to 10000
CC1(C)[C@@H](CO)C[C@H]1Nc1nc(NCc2cnccc2C(F)(F)F)ncc1C(F)(F)F [Cmpd 32]	< 100
CC1(C)C[C@H](Nc2nc(NCCc3ncon3)ncc2C#N)CC[C@@H]1O [Cmpd 191]	2000 to 10000
CC1(C)C(O)C[C@@H]1Nc1nc(NCc2cncnc2OCCC(F)(F)F)ncc1C#N (stereo partly shown) [Cmpd 107]	100 to 800
N#Cc1cnc(NCc2cnccc2C(F)(F)F)nc1NC12CC3CC(CC(O)(C3)C1)C2 [Cmpd 124]	800 to 2000
CCOc1ncncc1CNc1ncc(C#N)c(N[C@@H]2C[C@H](O)C2(C)C)n1 [Cmpd 58]	< 100
